Experimental data published in PMC5041131, “Bacteroides intestinalis DSM 17393, a member of the human colonic microbiome, upregulates multiple endoxylanases during growth on xylan” (Scientific Reports, 2016).

Target: T1, BiXyl43A (Bacteroides intestinalis, UniProt B3CES2)
T1 construct: gene BACINT_04203; GH43 module without signal peptide; N-terminal 6His tag (pET-46 Ek/LIC), E. coli BL21-CodonPlus(DE3)-RIL; IMAC and size exclusion
T1 sequence (B3CES2 1-325): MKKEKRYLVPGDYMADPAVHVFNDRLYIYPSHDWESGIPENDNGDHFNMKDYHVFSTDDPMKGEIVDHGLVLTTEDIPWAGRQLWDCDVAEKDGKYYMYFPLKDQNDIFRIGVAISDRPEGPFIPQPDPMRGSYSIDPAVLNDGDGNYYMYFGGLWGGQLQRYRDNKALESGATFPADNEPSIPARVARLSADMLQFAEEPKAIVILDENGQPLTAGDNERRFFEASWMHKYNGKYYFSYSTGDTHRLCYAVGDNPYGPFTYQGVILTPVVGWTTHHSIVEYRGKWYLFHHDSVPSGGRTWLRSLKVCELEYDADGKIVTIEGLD
Assay: HPAEC-PAD of hydrolysis products
Type: biochemical
Conditions: pH […] sodium phosphate, […] NaCl, […] °C, […] min; […] substrate, […] enzyme

SMILES | HPAEC-PAD of hydrolysis products
OC1OC[C@@H](O[C@@H]2OC[C@@H](O)[C@H](O)[C@H]2O)[C@H](O)[C@H]1O (some centres unmarked) [X2, xylobiose] | xylo-oligosaccharides ranging from xylobiose to xylohexaose led to cleavage or hydrolysis to their unit sugar
OC1OC[C@@H](O[C@@H]2OC[C@@H](O[C@@H]3OC[C@@H](O)[C@H](O)[C@H]3O)[C@H](O)[C@H]2O)[C@H](O)[C@H]1O (some centres unmarked) [X3, xylotriose] | BiXyl43A against xylo-oligosaccharides (xylobiose, X2; xylotriose, X3; xylotetraose, X4
